“Also recorded” adds a separate entry of the source.
Tests used:
Assay type in all cases: in vivo
CK-p25 Tg mice [1] = experiment: Recovery of long-term spatial memories in CK-p25 Tg mice (water maze reminder-training); settings: daily injection after 6 weeks p25 expression
Text: Recovery of spatial memories upon environmental enrichment and sodiumbutyrate injection. CK-p25 Tg mice in which p25 expression was repressed and control mice were trained in the water maze paradigm until all mice reliably found the hidden platform. Afterwards all mice were returned to their home cages for 4 weeks to allow the consolidation of hippocampus independent long-term memories. Afterwards p25 expression was induced for 6 weeks, followed by p25 repression. […] To measure the retrieval of long-term memory mice were instead exposed to only 2 reminder-training sessions on a single day. […] The recovery of spatial memories upon environmental enrichment was evaluated by a similar experiment, except that after 6 weeks of p25 expression mice were either subjected to EE or returned to their home cages for 4 weeks. […] To evaluate the recovery of spatial memories upon SB injection, a similar experiment was performed as described above, but instead of EE, one group of CK-p25 Tg mice (n=10) received daily injection of SB, whereas the other group was injected with vehicle (n=10).

CK-p25 Tg mice [2] = experiment: Water maze learning in CK-p25 Tg mice after neurodegeneration; settings: 6 weeks p25 induction, then daily 1.2 g/kg for 4 weeks, vs vehicle, P<0.0001
Text: (§1) Learning tests: All behavioral testing is described in Fischer et al. (3).
(§2) Reinstatement of learning behavior through inhibition of HDAC. Whether sustained inhibition of HDACs would reinstate learning behavior and recover access to long-term memories in CK-p25 Tg mice that had developed synaptic and neuronal loss was investigated. P25 was induced in 11 month old CK-p25 Tg mice for 6 weeks. Afterwards p25 expression was repressed and one group of CK-p25 Tg mice was subjected to daily sodiumbutyrate (SB) injection (1.2 g/kg) for 4 weeks (n=9), whereas the other group received saline injection (n=9). […] To this end p25 expression was induced in 11-month old CK-p25 mice for 6 weeks, before one group was injected daily for 4 weeks with SB whereas the control group received saline injection (FIG. 4a).

[3] = tested on: MAP-2, synaptophysin (SVP), synaptic marker proteins; experiment: Synaptic plasticity markers in CK-p25 Tg mice (immunostaining, immunoblot)
Experimental: (§3) Immunoblotting and staining: Lysates for immunoblotting were prepared as described by Fischer et al. (3). To isolate histones, brain tissue was homogenized in TX-buffer (50 mM Tris HCL, 150 mM NACL, 2 mM EDTA, 1% Triton-100) and incubated at 4° C. for 15 min prior to centrifugation at 200 rpm for 10 min. After a wash-step in TX-buffer the pellet was dissolved in TX-buffer containing 0.2M HCl and incubated on ice for 30 min, before a second centrifugation at 10000 rpm for 10 min. The supernatant was either dialysed or directly used for immunoblotting. Antibodies were used in 1:1000 concentrations. All antibodies detecting histones and anti-PSD-95 were form Upstate (Lake Placid, N.Y.). Anti-synaptophysin (SVP38) was from Sigma. Anti-neuronal nuclei (neuN) and anti-growth associated protein (Gap43) were from Chemicon (Temecula, Calif.) and anti-N-cadherin, anti-β-catenin were from Santa Cruz (Santa Cruz, Calif.). Immunostaining was performed as described by Fischer et al. (3). Antibodies mentioned above were used in a 1:500 dilution. Anti-MAP-2 antibody (Sigma) was used in a 1:200 dilution.
(§4) LSMeta10 software (Zeiss; Jena, Germany) was used to calculate the mean SVP intensity. Brain sections with the strongest intensity were scanned first. All other images included in the analysis where scanned using the same microscope setting. […] Scale bar: 20 μm. py, pyramidal cell layer (FIG. 1g).
For SB treatment, p25 was induced in 11 month old CK-p25 Tg mice for 6 weeks. Afterwards p25 expression was repressed and one group of CK-p25 Tg mice was subjected to daily sodiumbutyrate (SB) injection (1.2 g/kg) for 4 weeks, whereas the other group received saline injection. […] Representative images showing hippocampal MAP-2 staining are depicted in FIG. 7f. MAP-2 immunoreactivity of CK-p25 Tg mice treated with SB is increased when compared to the vehicle group. Representative images showing NeuN staining of the ACC.

CK-p25 Tg mice [4] = experiment: Fear conditioning learning in CK-p25 Tg mice after neurodegeneration; settings: 6 weeks p25 induction, then daily 1.2 g/kg for 4 weeks, vs saline, P=0.009
Text: as §1, §2

[5] = tested on: MAP-2, synaptophysin (SVP), synaptic and dendritic marker proteins; experiment: Synaptic and dendritic markers in hippocampus of wild type mice (immunostaining, immunoblot); settings: wild type mice injected for 4 weeks
Experimental: as §3, §4
The effect of sodiumbutyrate injection on learning, basal anxiety, explorative behavior and brain plasticity. C57BL/6J mice were subjected to fear conditioning and injected intraperitoneally [ip] with 1.2 g/kg sodiumbutyrate (SB, n=8) or saline (vehicle; n=8) immediately afterwards. […] C57BL/6J mice were implanted with microcannulae into the lateral brain ventricles (icv) and injected with either 100 ng SB, 50 ng TSA or vehicle immediately after fear conditioning (n=8/group). […] Immunoblots were quantified relative to the optical density of the vehicle-group (set to 1). […]

H3 and H4 acetylation = experiment: Histone acetylation in hippocampal lysates of wild type mice (immunoblot); settings: daily ip for 4 weeks
Experimental: as §3, with “Anti-MAP-2 antibody (Sigma) was used in a 1:200 dilution.” left out
Mechanism underlying EE. […] Since histone acetylation, an epigenetic mechanism regulating gene expression via chromatin remodeling, has recently been implicated in synaptic plasticity and learning behavior (15-18), the induction of a transcriptional program by EE that leads to activation of plasticity genes was evaluated. […]

Which results are given for `CCCC(=O)[O-].[Na+]` [SB, sodiumbutyrate]?
recovery of long-term spatial memories (CK-p25 Tg mice [1]): leads to the recovery of long-term spatial memories; also recorded: spatial long-term memories recover after neuronal loss; spatial learning (escape latency) (CK-p25 Tg mice [2]): significantly shorter escape latency; levels of synaptic marker proteins (markers for synaptic plasticity and integrity) ([3]; CK-p25 Tg mice, daily 1.2 g/kg for 4 weeks, hippocampus and cortex, vs vehicle): increased levels of synaptic marker proteins; also recorded: several markers for synaptic plasticity and integrity were increased; hippocampal MAP-2 immunoreactivity ([3]; CK-p25 Tg mice, daily 1.2 g/kg for 4 weeks, vs vehicle): increased; levels of synaptic marker proteins ([3]; CK-p25 Tg mice, long-term memory experiment, vs vehicle group): elevated levels of synaptic marker proteins; MAP-IR in the ACC ([3]; CK-p25 Tg mice, vs vehicle treated): MAP-IR was increased; hippocampal SVP-IR ([3]; CK-p25 mice, vs vehicle-injected, P<0.0001): increased hippocampal SVP-IR; associative learning (freezing behavior) (CK-p25 Tg mice [4]): significantly enhanced; levels of synaptic and dendritic marker proteins (markers for brain plasticity), hippocampal lysates ([5]; immunoblots relative to vehicle): elevated levels; also recorded: Several markers for brain plasticity were increased; hippocampal MAP-2 immunoreactivity (IR) ([5]; vs vehicle): increased MAP-2 immunoreactivity (IR); hippocampal synaptophysin (SVP) IR ([5]; vs vehicle): increased SVP IR; H3- and H4 acetylation in the hippocampus (H3 and H4 acetylation): robust increase
